Assay results as given in US10457707B2, “Substituted urea depsipeptide analogs as activators of the CLPP endopeptidase” (priority 2015, dated 2019).
Converted amounts (≈) assume the structure as drawn. Like-named read-outs stand apart in the source and are kept apart here. *1 amine or outer side, *2 acyl side, *3 side chain or, on linkers, in order; H or OH if unused. Where a SMILES comes first, the peptide text is derived from it. Bridges are numbered along the chain shown (N, C = ends). [ ]: non-standard residue; d: D form. The star is where a group is joined. ξ: configuration not given here. NH(1,3-benzodioxol-5-yl) = c1cc2c(cc1N*)OCO2; Phe(3,5-F2) = N[C@@H](Cc1cc(F)cc(F)c1)C(=O)O; Pro(4S-Me) = C[C@@H]1CN[C@H](C(=O)O)C1; Pro(4R-Me) = C[C@H]1CN[C@H](C(=O)O)C1; X10 = O=C(C1C[C@H](F)CN1[*:1])[*:2]; NH(4-Me-phenyl) = Cc1ccc(N*)cc1; aThr = C[C@H](O)[C@H](N)C(=O)O; Pip = O=C(O)[C@@H]1CCCCN1; ξPip = O=C(O)C1CCCCN1; CO = O=C([*:1])[*:2]; ξP = O=C(O)C1CCCN1

Key:
Format in all cases: cell-based
[1] = Cytotoxicity assay (CellTiter-Glo cell viability, 72 hours); conditions: African green monkey
Method: Cytotoxicity was determined by determining the effect of compounds on cell viability. Vero (kidney epithelial cells; ATCC CCL-81) monolayers were trypsinized and 5000 cells/well were seeded (10-15% confluency) into white-wall, flat bottom 96 well microwell plates (Corning) using enriched Dulbecco's Modified Eagle's Medium (Hyclone:DMEM/High Glucose) containing 10% Fetal Bovine Serum (ATCC-30-2020). Plates were incubated overnight at 37° C. in the presence of 5% CO2. Drug-free media was then replaced with media containing serial dilutions of test compound or DMSO carrier. After an additional 72 hours of incubation, viability was indirectly measured using the CellTiter-Glo® Luminescent Cell Viability (Promega) assay. Assay plates were read at peak emission wavelength of 560 nm using a EnVision® Multilabel Plate Reader (Perkin Elmer) or PHERAstar FS Multilabel reader (BMG, Cary, N.C.). […] USA, www.graphpad.com]. For each experiment, compounds were tested in duplicate. IC50 values presented are the range of two biologically independent experiments.

[2] = system: Staphylococcus aureus, USA 300; assay: Minimal inhibitory concentration assay; conditions: USA300, read-out: Minimal Inhibitory Concentrations S. aureus USA 300
Method: (§1) It is understood, that in various aspects, the MIC is determined by a microbroth dilution method. In a further aspect, the MIC is determined by a microbroth dilution method using Staphylococcus aureus, ATCC 29213. In a still further aspect, the MIC is determined by a microbroth dilution method using Staphylococcus aureus, NRS70. In a yet further aspect, the MIC is determined by a microbroth dilution method using Streptococcus pyogenes, ATCC 700294. In an even further aspect, the MIC is determined by a microbroth dilution method using Streptococcus pneumoniae, DAW27. In a still further aspect, the MIC is determined by a microbroth dilution method using Bacillus subtilis, ATCC 23857. In a yet further aspect, the MIC is determined by a microbroth dilution method using Enterococcus faecalis, ATCC 33186. In an even further aspect, the MIC is determined using Staphylococcus aureus, USA 300. In a still further aspect, the MIC is determined using Streptococcus pneumoniae, R6. In a further aspect, the MIC is determined using Staphylococcus aureus, USA 300 and compared to the MIC determined using Staphylococcus aureus, USA 300 wherein ClpP is inactivated, thus allowing confirmation that killing is via a ClpP-dependent pathway.
(§2) Minimal inhibitory concentrations (“MICs”) were determined using the microbroth dilution method according to Clinical Laboratory Standards Institute (CLSI; National, C.F. C. L. S., Methods for Dilution Antimicrobial Susceptibility Tests for Bacteria Grow aerobically-Seventh Edition: Approved Standard M7-A7, CLSI, Wayne, Pa., USA, 2008) and were read by visual inspection. Two fold serial dilutions of test compound in 100 μL of the appropriate broth media were first prepared in 96-well round bottom microtiter plates (Nalgene Nunc International, Rochester, N.Y., USA). An equivalent volume (100 μL) of bacterial broth inocula containing approximately 10^5 bacterial cfu/mL was added to each well to give final concentrations of test compound starting at 200 μM. The plates were then incubated aerobically at 37° C. All strains were incubated overnight. After incubations, in all cases the MIC was recorded as the lowest concentration of drug that prevented bacterial growth. The bacterial strains for which MIC was determined as described in Table 4.

[3] = system: Staphylococcus aureus, USA 300 wherein ClpP is inactivated; assay: Minimal inhibitory concentration assay
Method: as §1, §2

[4] = system: Streptococcus pyogenes, ATCC 700294; assay: Minimal inhibitory concentration assay (microbroth dilution)
Method: as §1
Minimal inhibitory concentrations (“MICs”) were determined using the microbroth dilution method according to Clinical Laboratory Standards Institute (CLSI; National, C.F. C. L. S., Methods for Dilution Antimicrobial Susceptibility Tests for Bacteria Grow aerobically-Seventh Edition: Approved Standard M7-A7, CLSI, Wayne, Pa., USA, 2008) and were read by visual inspection. Two fold serial dilutions of test compound in 100 μL of the appropriate broth media were first prepared in 96-well round bottom microtiter plates (Nalgene Nunc International, Rochester, N.Y., USA). […] The plates were then incubated aerobically at 37° C. All strains were incubated overnight. After incubations, in all cases the MIC was recorded as the lowest concentration of drug that prevented bacterial growth. The bacterial strains for which MIC was determined as described in Table 4.

[5] = system: Streptococcus pneumoniae, R6; assay: Minimal inhibitory concentration assay; conditions: read-out: Minimal Inhibitory Concentrations S. pneumoniae R6
Method: It is understood, that in various aspects, the MIC is determined by a microbroth dilution method. […] In a still further aspect, the MIC is determined by a microbroth dilution method using Staphylococcus aureus, NRS70. […] In an even further aspect, the MIC is determined by a microbroth dilution method using Streptococcus pneumoniae, DAW27. […] In an even further aspect, the MIC is determined using Staphylococcus aureus, USA 300. In a still further aspect, the MIC is determined using Streptococcus pneumoniae, R6. In a further aspect, the MIC is determined using Staphylococcus aureus, USA 300 and compared to the MIC determined using Staphylococcus aureus, USA 300 wherein ClpP is inactivated, thus allowing confirmation that killing is via a ClpP-dependent pathway.
Two fold serial dilutions of test compound in 100 μL of the appropriate broth media were first prepared in 96-well round bottom microtiter plates (Nalgene Nunc International, Rochester, N.Y., USA). […] The plates were then incubated aerobically at 37° C. All strains were incubated overnight. After incubations, in all cases the MIC was recorded as the lowest concentration of drug that prevented bacterial growth. The bacterial strains for which MIC was determined as described in Table 4.

[6] = system: Staphylococcus aureus, NRS70; assay: Minimal inhibitory concentration assay (microbroth dilution)
Method: as §1, §2

[7] = system: Bacillus subtilis, ATCC 23857; assay: as above
Method: as §1, §2

[8] = system: Staphylococcus aureus, ATCC 29213; assay: as above; conditions: ATCC29213, read-out: Minimal Inhibitory Concentrations S. aureus ATCC 29213
Method: as §1, §2

| Structure (SMILES) | IC50 at 72 h [1] [µM] | MIC [2] [µM] | Minimal Inhibitory Concentrations S. aureus USA 300 ΔClpP [3] [µM] | MIC ([4]; Streptococcus pyogenes, ATCC700294, read-out: Minimal Inhibitory Concentrations S. pyogenes ATCC 700294) [µM] | MIC [5] [µM] | MIC ([6]; Staphylococcus aureus, NRS70, read-out: Minimal Inhibitory Concentrations S. aureus NRS70) [µM] | MIC ([7]; Bacillus subtilis, ATCC23857, read-out: Minimal Inhibitory Concentrations B. subtilis ATCC 23857) [µM] | MIC [8] [µM] | MIC ([4]; Streptococcus pyogenes, ATCC700294; read-out: Minimal Inhibitory Concentrations S. pyogenes ATCC 700294) [µM] | MIC ([6]; Staphylococcus aureus, NRS70; read-out: Minimal Inhibitory Concentrations S. aureus NRS70) [µM] | MIC ([7]; Bacillus subtilis, ATCC23857; read-out: Minimal Inhibitory Concentrations B. subtilis ATCC 23857) [µM] |
| --- | --- | --- | --- | --- | --- | --- | --- | --- | --- | --- | --- |
| C[C@H]1C[C@H]2C(=O)O[C@@H](C)[C@H](NC(=O)[C@H](Cc3cc(F)cc(F)c3)NC(=O)Nc3ccc4c(c3)OCO4)C(=O)N3CCC[C@H]3C(=O)N3CCCC[C@H]3C(=O)N[C@@H](C)C(=O)N2C1 [Compound 196, (S)-2-(3-(benzo[d][1,3]dioxol-5-yl)ureido)-3-(3,5-difluorophenyl)-N-((2R,6S,8aS,14aS,20S,21S,23aS)-2,6,21-trimethyl-5,8,14,19,23-pentaoxooctadecahydro-1H,5H,14H,19H-pyrido[2,1-i]dipyrrolo[2,1-c:2′,1′-l][1]oxa[4,7,10,13]tetraazacyclohexadecin-20-yl)propanamide] ({NH(1,3-benzodioxol-5-yl)-CO}-[Phe(3,5-F2)][aThr]P[Pip]A[Pro(4S-Me)]; ester 2-C) | 52.8 ± 4.9 |  |  |  |  |  |  |  |  |  |  |
| Cc1ccc(NC(=O)N[C@@H](Cc2cc(F)cc(F)c2)C(=O)N[C@H]2COC(=O)C3C[C@H](F)CN3C(=O)[C@H](C)NC(=O)C3CCCCN3C(=O)C3CCCN3C2=O)cc1 (stereo partly drawn) [Compound 50, (S)-3-(3,5-difluorophenyl)-N-((2S,6S,8aS,14aS,20S,23aS)-2-fluoro-6-methyl-5,8,14,19,23-pentaoxooctadecahydro-1H,5H,14H,19H-pyrido[2,1-i]dipyrrolo[2,1-c:2′,1′-l][1]oxa[4,7,10,13]tetraazacyclohexadecin-20-yl)-2-(3-(p-tolyl)ureido)propanamide] ({NH(4-Me-phenyl)-CO}-[Phe(3,5-F2)]S[ξP][ξPip]A[X10]; ester 2-C) |  | 3.1 (≈ 2.47 µg/mL) | >200 | 1.6 (≈ 1.28 µg/mL) | 0.8 (≈ 0.638 µg/mL) | 1.6 (≈ 1.28 µg/mL) | > 200 | 3.1 (≈ 2.47 µg/mL) |  |  |  |
| C[C@@H]1C[C@H]2C(=O)O[C@@H](C)[C@H](NC(=O)[C@H](Cc3cc(F)cc(F)c3)NC(=O)Nc3ccc4c(c3)OCO4)C(=O)N3CCC[C@H]3C(=O)N3CCCC[C@H]3C(=O)N[C@@H](C)C(=O)N2C1 [Compound 198, (S)-2-(3-(benzo[d][1,3]dioxol-5-yl)ureido)-3-(3,5-difluorophenyl)-N-((2R,6S,8aS,14aS,20S,21S,23aS)-2,6,21-trimethyl-5,8,14,19,23-pentaoxooctadecahydro-1H,5H,14H,19H-pyrido[2,1-i]dipyrrolo[2,1-c:2′,1′-l][1]oxa[4,7,10,13]tetraazacyclohexadecin-20-yl)propanamide] ({NH(1,3-benzodioxol-5-yl)-CO}-[Phe(3,5-F2)][aThr]P[Pip]A[Pro(4R-Me)]; ester 2-C) |  | 0.039 (≈ 0.0327 µg/mL) | >20 |  | < 0.02 |  |  | 0.039 (≈ 0.0327 µg/mL) | 0.039 (≈ 0.0327 µg/mL) | < 0.02 | < 0.02 |
